Measured values taken from BindingDB's records for doi:10.1016/j.bmc.2021.116498 (Kyushu University, 2021).
Numbered stars: 1 amine (or outer) side, 2 acyl side, 3 side chain; on linkers, the order of the positions; unused ones are H or OH. Square brackets hold non-standard residues; d marks the D form. Peptide text beside a SMILES is read from it. X2 = O=C([C@H](Cc1c(F)cc(F)c(F)c1F)N[*:1])[*:2]; X3 = O=C([C@H](Cc1cc(F)c(F)c(F)c1F)N[*:1])[*:2]; Cha = N[C@@H](CC1CCCCC1)C(=O)O

Experiment: Activation of PAR-1 in human platelet-rich plasma assessed as induction of platelet aggregation by turbidimetric method

EC50 [µM]	Molecule
99	CC(C)C[C@H](NC(=O)[C@H](CC(C)C)NC(=O)[C@H](CC1CCCCC1)NC(=O)[C@@H](N)CO)C(=O)N[C@@H](CCCNC(=N)N)C(=O)N[C@@H](CC(N)=O)C(=O)N1CCC[C@H]1C(N)=O (H-S[Cha]LLRNP-NH2)
50	CC(C)C[C@H](NC(=O)[C@H](CC(C)C)NC(=O)[C@H](Cc1cc(F)c(F)c(F)c1F)NC(=O)[C@@H](N)CO)C(=O)N[C@@H](CCCNC(=N)N)C(=O)N[C@@H](CC(N)=O)C(=O)N1CCC[C@H]1C(N)=O (H-S[X3]LLRNP-NH2)
8.9	CC(C)C[C@H](NC(=O)[C@H](CC(C)C)NC(=O)[C@H](Cc1c(F)cc(F)c(F)c1F)NC(=O)[C@@H](N)CO)C(=O)N[C@@H](CCCNC(=N)N)C(=O)N[C@@H](CC(N)=O)C(=O)N1CCC[C@H]1C(N)=O (H-S[X2]LLRNP-NH2)
3	H-SFLLRNP-NH2 [1-{(S)-2-[(S)-2-((S)-2-{(S)-2-[(S)-2-((S)-2-Amino-3-hydroxy-propionylamino)-3-phenyl-propionylamino]-4-methyl-pentanoylamino}-4-methyl-pentanoylamino)-5-guanidino-pentanoylamino]-3-carbamoyl-propionyl}-pyrrolidine-2-carboxylic acid amide]
